{"source": "patent US8623995B2", "about": "“Peptide conjugates and fluorescence detection methods for intracellular caspase assay” (Applied Biosystems, LLC, priority 2001, dated 2014)", "key": {"NT-2 cells": {"test_system": "NT-2 cells", "assay": "Intracellular caspase assay on FMAT 8100 HTS System with peptide conjugate 9: apoptosis induction", "format": "cell-based, Human", "experimental": "(§1) One method for introducing the peptide conjugates into cells to induce apoptosis and measure caspase activity includes the following steps: • 1. Plate the eukaryotic cells in RPMI 1640 media in the wells of a tissue culture-treated 96-well plate at 37° C. The cells will adhere to well bottoms in 1 to 24 hours. Any number of different sample cells or any combination of cells, inhibitors or apoptosis inducers can be assayed. Typically 10,000 cells per well are plated in about 100 μl of tissue culture media. • 2. Add an apoptosis inducer, e.g. camptothecin or staurosporine, dissolved in media and/or solvent. Different concentrations can be used to study dose-response. • 3. Let the cells stand for about 24 hours at 37° C., depending on the inducer. • 4. Add the peptide conjugate, dissolved in media and/or solvent in a range of 1 to 10 μM, e.g. 2.5 μM, to every well, including controls. Let stand for about 90 minutes at 37° C. • 5. Transfer plates to a fluorescent plate reading device, cell sorter, flow cytometer, laser imager, microscope, or other device and read the content of the wells.\n(§2) A data spreadsheet assigns numerical values of fluorescence intensity and peak heights. The greyscale image has intensity content, like an autoradiogram. […] The cells are simply counted by a cell counting algorithm as either blue or red depending on the ratio of channel 2 to channel 1 fluorescence intensity, and independent of intensity values. The fraction of apoptotic cells is determined by identifying the apoptotic population in each well and dividing by the total number of cells detected. The ratio of red (channel 2) to blue (channel 1) inversely correlates to the apoptotic fraction. In other words:\n[formula] […] Effects of introducing apoptosis inducers and caspase inhibitors to different cells under variable conditions can thus be measured by the mix-and-read protocols on the FMAT 8100 System. A dose response is determined when this fraction (% apoptotic) is plotted as a function of the concentration of camptothecin in the well (FIG. 11), and other apoptosis inducers (FIGS. 12 and 13). […]"}, "HeLa cells": {"test_system": "HeLa cells", "assay": "Intracellular caspase assay with peptide conjugate 9: apoptosis induction", "format": "cell-based, Human", "conditions": "peptide conjugate 9 (FIG. 13)", "experimental": "as §1, with “Plate the eukaryotic cells in RPMI 1640 media in the wells of a tissue culture-treated 96-well plate at 37° C.” left out, “Add the peptide conjugate, dissolved in media and/or solvent in a range of 1 to 10 μM, e.g. 2.5 μM, to every well, including controls.” left out\nas §2, with “The ratio of red (channel 2) to blue (channel 1) inversely correlates to the apoptotic fraction. In other words:” left out"}, "Jurkat cells": {"test_system": "Jurkat cells", "assay": "Intracellular caspase assay with peptide conjugate 9: apoptosis induction", "format": "cell-based, Human", "conditions": "peptide conjugate 9 (FIG. 13)", "experimental": "as §1, with “Plate the eukaryotic cells in RPMI 1640 media in the wells of a tissue culture-treated 96-well plate at 37° C.” left out, “Add the peptide conjugate, dissolved in media and/or solvent in a range of 1 to 10 μM, e.g. 2.5 μM, to every well, including controls.” left out\nas §2, with “The ratio of red (channel 2) to blue (channel 1) inversely correlates to the apoptotic fraction. In other words:” left out"}, "caspase": {"biological_target": "T1, caspase (Homo sapiens, UniProt P42574)", "T1 construct": "endogenous in cells; host or cells: NT-2 cells", "T1 sequence (P42574 29-175 limits assumed)": "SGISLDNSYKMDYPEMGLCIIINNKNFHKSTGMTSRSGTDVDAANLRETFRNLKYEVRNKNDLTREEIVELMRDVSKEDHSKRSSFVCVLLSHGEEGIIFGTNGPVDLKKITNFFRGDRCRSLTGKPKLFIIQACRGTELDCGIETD", "T1 sequence (P42574 176-277 limits assumed)": "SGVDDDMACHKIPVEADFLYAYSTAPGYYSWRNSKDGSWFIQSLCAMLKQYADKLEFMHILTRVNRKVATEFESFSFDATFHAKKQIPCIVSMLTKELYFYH", "assay": "Intracellular caspase assay on FMAT 8100: caspase inhibitors on cleavage of peptide conjugate 9 in NT-2 cells", "format": "cell-based", "conditions": "inhibitor at 50 μM, NT-2 cells with CMP to induce apoptosis (FIG. 10)", "experimental": "as §1, with “Plate the eukaryotic cells in RPMI 1640 media in the wells of a tissue culture-treated 96-well plate at 37° C.” left out, “Add the peptide conjugate, dissolved in media and/or solvent in a range of 1 to 10 μM, e.g. 2.5 μM, to every well, including controls.” left out\nThe plate was incubated at 37° C. for 90 minutes."}}, "note": "The star is where a group is joined. Cbz = O=C(OCc1ccccc1)*; CH2F = FC*"}
{"molecule": "CC[C@@]1(O)C(=O)OCc2c1cc1n(c2=O)Cc2cc3ccccc3nc2-1", "note": "[camptothecin]", "values": [{"measurement": "Induction of apoptosis / caspase activity (donor dye emission, channel 1)", "setting": "NT-2 cells; 500 nM, peptide conjugate 9 (FIG. 9)", "value": "caspase activity is evident"}, {"measurement": "Dose response: fraction of apoptotic cells", "setting": "NT-2 cells; 0.0001 to 10 μM, 24 hours, peptide conjugate 9 (FIG. 11)", "value": "fraction of apoptotic cells correlates with camptothecin concentration"}]}
{"molecule": "COc1cccc2c1C(=O)c1c(O)c3c(c(O)c1C2=O)C[C@@](O)(C(=O)CO)C[C@@H]3O[C@H]1C[C@H](N)[C@H](O)[C@H](C)O1", "note": "[doxirubicin]", "values": [{"measurement": "Concentration above which most of the cells were detected as apoptotic", "setting": "NT-2 cells; peptide conjugate 9 (FIG. 12)", "value": "about 0.1 μM"}]}
{"molecule": "CN[C@@H]1C[C@H]2O[C@@](C)([C@@H]1OC)n1c3ccccc3c3c4c(c5c6ccccc6n2c5c31)C(=O)NC4", "note": "[staurosporine]", "values": [{"measurement": "Threshold concentration above which fraction of apoptotic cells correlates with concentration", "setting": "HeLa cells", "value": "~0.5", "unit": "µM"}, {"measurement": "Threshold concentration above which fraction of apoptotic cells correlates with concentration", "setting": "Jurkat cells", "value": "about 0.05 μM"}]}
{"molecule": "Cbz-Val-Ala-Asp-CH2F", "values": [{"measurement": "Suppression of cleavage of peptide conjugate 9", "setting": "caspase", "value": "complete suppression"}]}
